Columns and labels:
Experiment in all cases: Bliss interaction score (quartile over a dose matrix) (fitness difference); higher = more antagonism (negative = synergy)
[1] = tested on: S. pneumoniae D39V
Procedure, shortened: (§1)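 Fitness is OD595 at stationary-phase entry relative to the plate's robust no-drug mean, capped at 1. Single-drug fitness was inferred from combinations. The Bliss score is observed minus product-expected fitness, summarised by quartiles over technical, biological and donor/recipient replicates.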

[2] = tested on: B. subtilis 168
Procedure, shortened: as §1

[3] = tested on: S. aureus Newman
Procedure, shortened: as §1

[4] = tested on: S. aureus DSM 20231
Procedure, shortened: as §1
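Note: first quartile when negative (synergy) and third quartile when positive (antagonism).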

N[C@@H]1CONC1=O [CycloserineD] + COc1c(N2C[C@@H]3CCCN[C@@H]3C2)c(F)cc2c(=O)c(C(=O)O)cn(C3CC3)c12 [Moxifloxacin]
Bliss interaction score [1]: 0.0969
Bliss interaction score [2]: -0.0252
Bliss interaction score [3]: -0.0769
Bliss interaction score [4]: -0.0873

CC(=O)OC[C@H]1O[C@@H]([S-])[C@H](OC(C)=O)[C@@H](OC(C)=O)[C@@H]1OC(C)=O.CCP(CC)CC.[Au+] [Auranofin] + CCC[C@@H]1C[C@@H](C(=O)N[C@@H]([C@H]2O[C@H](SC)[C@H](O)[C@@H](O)[C@H]2O)[C@@H](C)O)N(C)C1 [Lincomycin]
Bliss interaction score [1]: -0.0496
Bliss interaction score [2]: 0.066
Bliss interaction score [3]: 0.0853
Bliss interaction score [4]: 0.0235

CC(=O)OC[C@H]1O[C@@H]([S-])[C@H](OC(C)=O)[C@@H](OC(C)=O)[C@@H]1OC(C)=O.CCP(CC)CC.[Au+] [Auranofin] + CC1=C\[C@@H](O)CC(=O)Cc2nc(co2)C(=O)N2CCC=C2C(=O)O[C@H](C(C)C)[C@H](C)/C=C/C(=O)NC\C=C\1 [Virginiamycin M1]
Bliss interaction score [1]: 0.0585
Bliss interaction score [2]: -0.0329
Bliss interaction score [3]: -0.0212
Bliss interaction score [4]: -0.0753

CC(=O)OC[C@H]1O[C@@H]([S-])[C@H](OC(C)=O)[C@@H](OC(C)=O)[C@@H]1OC(C)=O.CCP(CC)CC.[Au+] [Auranofin] + CN[C@@H]1[C@H](O[C@H]2[C@H](O[C@H]3[C@H](O)[C@@H](O)[C@H](N=C(N)N)[C@@H](O)[C@@H]3N=C(N)N)O[C@@H](C)[C@]2(O)C=O)O[C@@H](CO)[C@H](O)[C@H]1O [Streptomycin]
Bliss interaction score [1]: -0.163
Bliss interaction score [2]: 0.0215
Bliss interaction score [3]: -0.0862
Bliss interaction score [4]: -0.0362

CC(=O)OC[C@H]1O[C@@H]([S-])[C@H](OC(C)=O)[C@@H](OC(C)=O)[C@@H]1OC(C)=O.CCP(CC)CC.[Au+] [Auranofin] + CC1(C)S[C@@H]2[C@H](NC(=O)Cc3ccccc3)C(=O)N2[C@H]1C(=O)O [PenicillinG]
Bliss interaction score [1]: 0.0454
Bliss interaction score [2]: -0.0513
Bliss interaction score [3]: -0.0443
Bliss interaction score [4]: 0.0414

CC(=O)O[C@H]1C[C@@]2(C)[C@@H](C[C@@H](O)[C@H]3[C@@]4(C)CC[C@@H](O)[C@@H](C)[C@@H]4CC[C@@]32C)/C1=C(\CCC=C(C)C)C(=O)O [Fusidic acid] + CCC[C@@H]1C[C@@H](C(=O)N[C@@H]([C@H]2O[C@H](SC)[C@H](O)[C@@H](O)[C@H]2O)[C@@H](C)O)N(C)C1 [Lincomycin]
Bliss interaction score [1]: -0.0651
Bliss interaction score [2]: 0.0915
Bliss interaction score [3]: -0.0595
Bliss interaction score [4]: -0.0572

O=C(N[C@H](CO)[C@H](O)c1ccc([N+](=O)[O-])cc1)C(Cl)Cl [Chloramphenicol] + Oc1cc(Cl)ccc1Oc1ccc(Cl)cc1Cl [Triclosan]
Bliss interaction score [1]: 0.0444
Bliss interaction score [2]: -0.0443
Bliss interaction score [3]: 0.0302
Bliss interaction score [4]: -0.0764

CC(=O)O[C@H]1C[C@@]2(C)[C@@H](C[C@@H](O)[C@H]3[C@@]4(C)CC[C@@H](O)[C@@H](C)[C@@H]4CC[C@@]32C)/C1=C(\CCC=C(C)C)C(=O)O [Fusidic acid] + CN[C@@H]1[C@H](O[C@H]2[C@H](O[C@H]3[C@H](O)[C@@H](O)[C@H](N=C(N)N)[C@@H](O)[C@@H]3N=C(N)N)O[C@@H](C)[C@]2(O)C=O)O[C@@H](CO)[C@H](O)[C@H]1O [Streptomycin]
Bliss interaction score [1]: -0.0901
Bliss interaction score [2]: 0.0692
Bliss interaction score [3]: -0.0834
Bliss interaction score [4]: 0.034

CC(=O)O[C@H]1C[C@@]2(C)[C@@H](C[C@@H](O)[C@H]3[C@@]4(C)CC[C@@H](O)[C@@H](C)[C@@H]4CC[C@@]32C)/C1=C(\CCC=C(C)C)C(=O)O [Fusidic acid] + CN(N=O)C(=O)N[C@@H](C=O)[C@@H](O)[C@H](O)[C@H](O)CO [Streptozotocin]
Bliss interaction score [1]: 0.0486
Bliss interaction score [2]: 0.0745
Bliss interaction score [3]: -0.0145
Bliss interaction score [4]: -0.0166

O=C(N[C@H](CO)[C@H](O)c1ccc([N+](=O)[O-])cc1)C(Cl)Cl [Chloramphenicol] + CCC(C)C1C(=O)NC(=C)C(=O)NC(C(=O)NC(CSCC(C(=O)N1)NC(=O)/C(=C/C)/NC(=O)C(C(C)CC)N)C(=O)NC2C(SCC(NC(=O)CNC(=O)C3CCCN3C2=O)C(=O)NC(CCCCN)C(=O)NC4C(SCC(NC(=O)CNC(=O)C(NC(=O)C(NC(=O)C(NC(=O)CNC4=O)C)CC(C)C)CCSC)C(=O)NC(CC(=O)N)C(=O)NC(CCSC)C(=O)NC(CCCCN)C(=O)NC5C(SCC6C(=O)NC(C(=O)NC(CSC(C(C(=O)N6)NC(=O)C(NC5=O)C)C)C(=O)NC(CO)C(=O)NC(C(C)CC)C(=O)NC(CC7=CN=CN7)C(=O)NC(C(C)C)C(=O)NC(=C)C(=O)NC(CCCCN)C(=O)O)CC8=CN=CN8)C)C)C)CC(C)C [Nisin]
Bliss interaction score ([1]; main component drawn): -0.102
Bliss interaction score ([2]; main component drawn): 0.0397
Bliss interaction score ([3]; main component drawn): 0.0543
Bliss interaction score ([4]; main component drawn): -0.0704

CC(=O)OC[C@H]1O[C@@H]([S-])[C@H](OC(C)=O)[C@@H](OC(C)=O)[C@@H]1OC(C)=O.CCP(CC)CC.[Au+] [Auranofin] + CN[C@H](CC(C)C)C(=O)N[C@H]1C(=O)N[C@@H](CC(N)=O)C(=O)N[C@H]2C(=O)N[C@H]3C(=O)N[C@H](C(=O)N[C@H](C(=O)O)c4cc(O)cc(O)c4-c4cc3ccc4O)[C@H](O)c3ccc(c(Cl)c3)Oc3cc2cc(c3O[C@@H]2O[C@H](CO)[C@@H](O)[C@H](O)[C@H]2O[C@H]2C[C@](C)(N)[C@H](O)[C@H](C)O2)Oc2ccc(cc2Cl)[C@H]1O [Vancomycin]
Bliss interaction score [1]: 0.0929
Bliss interaction score [2]: 0.0381
Bliss interaction score [3]: 0.0325
Bliss interaction score [4]: -0.0311

O=C(N[C@H](CO)[C@H](O)c1ccc([N+](=O)[O-])cc1)C(Cl)Cl [Chloramphenicol] + CC[C@H]1OC(=O)[C@H](C)C(=O)[C@H](C)[C@@H](O[C@@H]2O[C@H](C)C[C@H](N(C)C)[C@H]2O)[C@](C)(OC)C[C@@H](C)C(=O)[C@H](C)[C@H]2N(CCCCn3cnc(-c4cccnc4)c3)C(=O)O[C@]12C [Telithromycin]
Bliss interaction score [1]: -0.0437
Bliss interaction score [2]: -0.0575
Bliss interaction score [3]: -0.0946
Bliss interaction score [4]: -0.104

CCC[C@@H]1C[C@@H](C(=O)N[C@@H]([C@H]2O[C@H](SC)[C@H](O)[C@@H](O)[C@H]2O)[C@H](C)Cl)N(C)C1 [Clindamycin] + N[C@@H]1CONC1=O [CycloserineD]
Bliss interaction score [1]: 0.165
Bliss interaction score [2]: 0.0351
Bliss interaction score [3]: 0.0633
Bliss interaction score [4]: -0.101
